Measurements reported in US10435642B2, “Ionic liquids containing symmetric quaternary phosphonium cations and phosphorus-containing anions, and their use as lubricant additives” (UT-Battelle, LLC, priority 2014, dated 2019).

Assays:
[1] = Density measurement of ionic liquids; assay type: physicochemical; conditions: neat ionic liquid
Procedure: (§1) Density and Viscosity Measurements
(§2) The density and viscosity of [P8888][DEHP] were measured and compared with those of [P66614][DEHP] and [P44414][DEHP].

[2] = Viscosity measurement of ionic liquids; assay type: physicochemical
Procedure: as §1, §2

[3] = Corrosion test: droplet of ionic liquid on grey cast iron; conditions: observation in the corrosion test
Excerpt: A droplet of each IL was placed on the surface of a piece of grey cast iron.

[4] = Thermogravimetric analysis (TGA) thermal stability in air; assay type: physicochemical
Excerpt: ZDDP, when decomposed, left about a 20% solid residue (“ash”) because of its zinc content. In contrast, all decomposition products of the ionic liquids were gaseous, thus confirming their “ashless” nature.

| Substance | ρ (density) [1] [g/cc] | η (viscosity) 40° C. [2] [cP] | η (viscosity) 100° C. [2] [cP] | Oil-solubility in ExxonMobil PAO 4 cSt base oil (ExxonMobil PAO 4 cSt base oil) [wt %] | Hydrophobicity compared to the other ionic liquids [3] | Oil-solubility in Chevron SAE 10 W base oil (Chevron SAE 10 W base oil) [wt %] | Oil-solubility in Shell GTL 4 cSt base oil (Shell GTL 4 cSt base oil) [wt %] | Solid residue (ash) after decomposition [4] [%] |
| --- | --- | --- | --- | --- | --- | --- | --- | --- |
| tetraoctylphosphonium bis(2-ethylhexyl)phosphate [[P8888][DEHP]] | 0.86 | 608 | 68 | >50 |  |  |  |  |
| tributyltetradecylphosphonium bis(2-ethylhexyl)phosphate [[P44414][DEHP]] | 0.88 | 252 | 25 |  | lower hydrophobicity | <1 | <1 |  |
| trihexyltetradecylphosphonium bis(2-ethylhexyl)phosphate [[P66614][DEHP]] | 0.91 | 390 | 45 |  |  |  |  |  |
| zinc dialkyldithiophosphate [ZDDP] |  |  |  |  |  |  |  | ~20 |
